The values below come from US6585964B1, “Method for preventing or minimizing biodegradation of a substance” (Biospherics Incorporated, priority 1999, dated 2003).

Assay [1] has as its system carboxypeptidase. Particulars: compared with the L-enantiomorph, which is hydrolysed; cited from earlier work.
The subject of assay [2] is sense of smell. The experiment in a line: Human smell test of menthol enantiomers evaporated from acetone solution in Petri dishes. The class given is in vivo. Particulars: 0.001M solution in acetone, twenty drops, acetone evaporated at room temperature; six human subjects, test performed twice each. Here is the method: The naturally-occurring optical isomer of menthol (1R,2S,5R)−(−) is used as a fragrance in a variety of products, such as perfumes, gums, and cigarettes. Both the natural and the unnatural (1S,2R,5S)−(+) optical isomer of menthol were obtained in 99% purity. A 0.001M solution of each enantiomer was prepared in reagent grade acetone. The solutions were allowed to equilibrate at room temperature for approximately one hour. Twenty drops of each solution were pipetted into separate glass Petri dishes. All glassware was clean. The acetone was then allowed to evaporate at room temperature. A human subject then smelled the two Petri dishes separately and recorded any sensations. The subject had been instructed to determine the presence of odor in the Petri dishes, and, if odor emanated from each, to determine whether the odors were the same or different. The test was performed twice on each of six human subjects, three female and three male. Each subject was given freshly prepared Petri dish servings to smell, and each immediately recorded his or hers impressions without communicating with the other subjects.

Square brackets hold non-standard residues; d marks the D form. Peptide text beside a SMILES is read from it. * marks the point of attachment. Cbz = O=C(OCc1ccccc1)*

For `O=C(CNC(=O)OCc1ccccc1)N[C@H](Cc1ccccc1)C(=O)O` [carbobenzoxyglycyl-D-phenalalanine] (Cbz-Gly-[dF]-OH), the “action of carboxypeptidase (hydrolysis) on the compound” value in assay [1] is reported as “no measurable action”.
In the case of `CC1CC[C@H](C(C)C)[C@@H](O)C1` (stereo partly drawn) [unnatural form of menthol, (1S,2R,5S)-(+)-Menthol], in assay [2], the “odor the same as or different from the natural form” value is “the same as that of the natural form” and the presence of odor entry is on record as “had odor”.
